What all share (type): tissue-based
Holding throughout (conditions): Cavia porcellus, target entry is the homologue from another species

In assay [1] the target is T1, 5-hydroxytryptamine receptor 1A (Homo sapiens) (UniProt P08908).
T1 sequence (whole entry): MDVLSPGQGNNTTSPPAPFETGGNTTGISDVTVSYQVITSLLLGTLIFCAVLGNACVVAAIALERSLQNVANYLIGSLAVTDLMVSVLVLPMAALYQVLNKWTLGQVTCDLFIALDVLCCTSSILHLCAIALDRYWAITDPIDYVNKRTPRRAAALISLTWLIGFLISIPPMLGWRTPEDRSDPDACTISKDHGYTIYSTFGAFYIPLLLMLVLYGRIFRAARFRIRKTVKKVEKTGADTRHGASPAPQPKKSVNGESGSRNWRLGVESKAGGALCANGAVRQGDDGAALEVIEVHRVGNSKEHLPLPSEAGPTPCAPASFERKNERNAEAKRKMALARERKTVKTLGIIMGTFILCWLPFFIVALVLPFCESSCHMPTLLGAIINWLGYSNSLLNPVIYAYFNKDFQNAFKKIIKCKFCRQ
The experiment in a line: Ability to antagonize Acetylcholine induced contractile responses in Guinea pig ileum for 5-HT1A receptor. Inactive at dose level of 1.0 uM.

Assay [2] deals with T1, 5-hydroxytryptamine receptor 1A (Homo sapiens). The experiment in a line: Ability to antagonize electrical induced contractile responses in Guinea pig ileum for 5-HT1A receptor. Inactive at dose level of 1.0 uM.
Assay [3] has the same target. The experiment in a line: Ability to antagonize electrical induced contractile responses in Guinea pig ileum for 5-HT1A receptor.
Assay [4] shares this target. The experiment in a line: Ability to antagonize Acetylcholine induced contractile responses in Guinea pig ileum for 5-HT1A receptor.
Assay [5] shares this target. The experiment in a line: Ability to antagonize electrical induced contractile responses in Guinea pig ileum for 5-HT1A receptor; Inactive at dose level of 1.0 uM.

Activity calls are given as the source filed them. The calls are words filed in the database; no cut-off is given here.

Take `Cc1cc2c(cc1O)-c1cccc3c1C(C2)N(C)CC3` (single isomer, unassigned; (-)): the ED50 entry in assay [1] and in assay [2] was “inactive” in each case.
Take `COc1cc2c(cc1C)-c1cccc3c1C(C2)N(C)CC3` (single isomer, unassigned; (-)): the ED50 in assay [3] was found to be 5 µM; in assay [4], 2.7 µM.
Turning to `Cc1cc2c(cc1O)CC1c3c(cccc3-2)CCN1C` (single isomer, unassigned; (+)), the ED50 result in assay [1] and in assay [2] was “inactive” each time.
Consider `COc1cc2c(cc1C)-c1cccc3c1C(C2)N(C)CC3` (single isomer, unassigned; (+)), for which the values for the ED50 in assay [3] and in assay [4] were 5.4 µM and 24.9 µM, respectively.
Taken in the same sequence, the figures for `COc1cc2c(cc1C)CC1c3c(cccc3-2)CCN1C` (stereo in doubt; (-)-9) were 2.6 µM and 11.4 µM.
As to `Cc1cc2c(cc1O)CC1c3c(cccc3-2)CCN1C` (single isomer, unassigned; (-)), the ED50 entry in assay [1] and in assay [2] was “inactive” in each case.
Consider `COc1cc2c(cc1C)CC1c3c(cccc3-2)CCN1C` (stereo in doubt; (+)-9), for which the ED50 in assay [3] was determined as 5.9 µM; in assay [4] it was 36.6 µM.
With `Cc1ccc2c(c1O)-c1cccc3c1[C@@H](C2)N(C)CC3`, in assay [3], the ED50 was determined as 0.05 µM.
As to `Cc1cc2c(cc1O)-c1cccc3c1C(C2)N(C)CC3` (single isomer, unassigned; (+)), the ED50 result in assay [1] and in assay [5] was “inactive” each time.

These data come from ChEMBL document CHEMBL1128373, “A-ring ortho-disubstituted aporphine derivatives as potential agonists or antagonists at serotonergic 5-HT1A receptors” (J Med Chem, 1995).
